Assay results taken from patent US20110312941A1, “1,4-DISUBSTITUTED PIPERIDINES AS VASOPRESSIN RECEPTOR VIA ANTAGONISTS” (VANTIA LIMITED, priority 2009, published 2011).

These compounds were tested against T1, cloned human V1a receptor (Homo sapiens, UniProt P37288) (assay: in vitro functional calcium mobilisation assay (FLIPR), antagonist activity, 1321N1 cells, 250 pM AVP). Details: functional pKi derived from pIC50 (Equation 1), FLIPR Ca2+ mobilisation, 1321N1 cells expressing cloned human V1a receptor, read-out: Mean fpKi (Human V1a) (converted).
T1 construct: host or cells: human brain astrocytoma 1321N1 cells
T1 sequence (P37288 whole entry): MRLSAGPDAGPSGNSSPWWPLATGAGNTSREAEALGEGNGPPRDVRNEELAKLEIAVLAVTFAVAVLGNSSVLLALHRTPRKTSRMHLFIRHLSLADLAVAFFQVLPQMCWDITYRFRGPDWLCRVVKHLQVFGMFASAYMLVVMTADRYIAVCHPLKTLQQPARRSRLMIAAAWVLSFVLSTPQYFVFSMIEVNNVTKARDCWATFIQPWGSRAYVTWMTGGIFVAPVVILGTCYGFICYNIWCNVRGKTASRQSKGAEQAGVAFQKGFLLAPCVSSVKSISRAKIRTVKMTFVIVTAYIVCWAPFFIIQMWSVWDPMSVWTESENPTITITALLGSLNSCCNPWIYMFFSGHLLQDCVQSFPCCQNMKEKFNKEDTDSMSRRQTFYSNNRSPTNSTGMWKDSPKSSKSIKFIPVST
Format: cell-based
Experimental: The primary assay which may be used to determine the ability of the compounds of formula (1) to inhibit the vasopressin V1a receptor is an in vitro functional calcium mobilisation assay (FLIPR) that measures antagonist activity at a cloned human V1a receptor. The assay is described below.
The antagonist activity of compounds of formula (1) were determined in a Calcium (Ca2+) mobilisation assay using whole cells (human brain astrocytoma 1321N1 cells, ex Perkin Elmer) genetically modified to stably express a cloned human V1a receptor. Dose response curves were determined by displacement of a single concentration of agonist (250 pM AVP, ex Sigma) with increasing concentrations of compound. A pIC50 value is determined by non-linear regression to a 4-parameter logistic equation and a functional pKi (fpKi) derived using Equation 1.
where A=agonist single conc, and A50=the agonist EC50.
`CCc1nc2c([nH]1)-c1cc(Cl)ccc1N(C(=O)C1CCN(c3ccccn3)CC1)CC2` [Example 46] was tested, and the Ki was 13.5 nM.
`CCCc1nc2c([nH]1)-c1cc(Cl)ccc1N(C(=O)C1CCN(c3ccccn3)CC1)CC2` [Example 47] was tested, and the Ki was 11.7 nM.
With `O=C(C1CCN(c2ccccn2)CC1)N1CCc2nc(C3CC3)[nH]c2-c2cc(Cl)ccc21` [Example 48] the Ki was 10.2 nM.
`O=C(C1CCN(c2ccccn2)CC1)N1CCc2nc(C3CCCCC3)[nH]c2-c2cc(Cl)ccc21` [Example 49] gave a Ki of 23.4 nM.
Compound `O=C(C1CCN(c2ccccn2)CC1)N1CCc2nc(N3CCCCC3)[nH]c2-c2cc(Cl)ccc21` [Example 50] has a Ki of 24.5 nM.
For `CN1CCN(c2nc3c([nH]2)-c2cc(Cl)ccc2N(C(=O)C2CCN(c4ccccn4)CC2)CC3)CC1` [Example 51], the Ki was 17.4 nM.
Work on `Cc1ccc(N2CCC(C(=O)N3CCc4nc(N5CCN(C)CC5)[nH]c4-c4cc(Cl)ccc43)CC2)nc1` [Example 52] yielded a Ki of 1.1 nM.
`O=C(C1CCN(c2ccccn2)CC1)N1CCc2nc(-c3ccccc3)[nH]c2-c2cc(Cl)ccc21` [Example 53] showed a Ki of 64.6 nM.
`O=C(C1CCN(c2ccccn2)CC1)N1CCc2nc(-c3ccccc3F)[nH]c2-c2cc(Cl)ccc21` [Example 54] gave a Ki of 75.9 nM.
`O=C(C1CCN(c2ccccn2)CC1)N1CCc2nc(-c3cccc(F)c3)[nH]c2-c2cc(Cl)ccc21` [Example 55] showed a Ki of 97.7 nM.
In the case of `O=C(C1CCN(c2ccccn2)CC1)N1CCc2nc(Cc3ccccc3)[nH]c2-c2cc(Cl)ccc21` [Example 56], the Ki is reported as 79.4 nM.
Compound `O=C(C1CCN(c2ccccn2)CC1)N1CCc2nc(N3CCOCC3)[nH]c2-c2cc(Cl)ccc21` [Example 57] has a Ki of 2.51 nM.
`Cc1ccnc(N2CCC(C(=O)N3CCc4nc(N5CCOCC5)[nH]c4-c4cc(Cl)ccc43)CC2)c1` [Example 58] showed a Ki of 0.646 nM.
`Cc1ccc(N2CCC(C(=O)N3CCc4nc(N5CCOCC5)[nH]c4-c4cc(Cl)ccc43)CC2)nc1` [Example 59] was tested, and the Ki was 0.794 nM.
For `Cc1cccc(N2CCC(C(=O)N3CCc4nc(N5CCOCC5)[nH]c4-c4ccccc43)CC2)n1` [Example 60], the Ki was 12.9 nM.
`CCc1nc2c([nH]1)-c1cc(C)ccc1N(C(=O)C1CCN(c3cccc(C)n3)CC1)CC2` [Example 61] gave a Ki of 7.41 nM.
`CCCc1nc2c([nH]1)-c1cc(C)ccc1N(C(=O)C1CCN(c3cccc(C)n3)CC1)CC2` [Example 62] was tested, and the Ki was 7.41 nM.
`Cc1ccc2c(c1)-c1[nH]c(N3CCOCC3)nc1CCN2C(=O)C1CCN(c2cccc(C)n2)CC1` [Example 63] showed a Ki of 1.86 nM.
`COc1cccc(N2CCC(C(=O)N3CCc4nc(N5CCOCC5)[nH]c4-c4cc(C)ccc43)CC2)n1` [Example 64] was tested, and the Ki was 6.31 nM.
`Cc1ccc2c(c1)-c1[nH]c(C3CCOCC3)nc1CCN2C(=O)C1CCN(c2cccc(C)n2)CC1` [Example 65] was tested, and the Ki was 7.59 nM.
With `COc1cccc(N2CCC(C(=O)N3CCc4nc(C5CCOCC5)[nH]c4-c4cc(C)ccc43)CC2)n1` [Example 66] the Ki was 30.9 nM.
`Cc1cccc(N2CCC(C(=O)N3CCc4nc(N5CCOCC5)[nH]c4-c4cc(Cl)ccc43)CC2)n1` [Example 67] was tested, and the Ki was 1.35 nM.
`COc1cccc(N2CCC(C(=O)N3CCc4nc(N5CCOCC5)[nH]c4-c4cc(Cl)ccc43)CC2)n1` [Example 68] was tested, and the Ki was 1.91 nM.
In the case of `Cc1ccc2c(c1)-c1[nH]c(N3CCOCC3)nc1CCN2C(=O)C1CCN(c2cnccc2C)CC1` [Example 69], the Ki is reported as 13.8 nM.
For `Cc1cncc(N2CCC(C(=O)N3CCc4nc(N5CCOCC5)[nH]c4-c4cc(C)ccc43)CC2)c1` [Example 70], the Ki was 6.61 nM.
With `Cc1ccc2c(c1)-c1[nH]c(N3CCOCC3)nc1CCN2C(=O)C1CCN(c2cccnc2C)CC1` [Example 71] the Ki was 16.6 nM.
With `Cc1nc2c([nH]1)-c1cc(Cl)ccc1N(C(=O)C1CCN(c3ccccc3)CC1)CC2` [Example 72] the Ki was 9.12 nM.
`CCc1nc2c([nH]1)-c1cc(Cl)ccc1N(C(=O)C1CCN(c3ccccc3)CC1)CC2` [Example 73] was tested, and the Ki was 6.17 nM.
Compound `CCCc1nc2c([nH]1)-c1cc(Cl)ccc1N(C(=O)C1CCN(c3ccccc3)CC1)CC2` [Example 74] has a Ki of 15.1 nM.
`O=C(C1CCN(c2ccccc2)CC1)N1CCc2nc(C3CC3)[nH]c2-c2cc(Cl)ccc21` [Example 75] gave a Ki of 11 nM.
`O=C(C1CCN(c2ccccc2)CC1)N1CCc2nc(C3CCCCC3)[nH]c2-c2cc(Cl)ccc21` [Example 76] gave a Ki of 28.2 nM.
Work on `O=C(C1CCN(c2ccccc2)CC1)N1CCc2nc(N3CCCCC3)[nH]c2-c2cc(Cl)ccc21` [Example 77] yielded a Ki of 18.2 nM.
For `CN1CCN(c2nc3c([nH]2)-c2cc(Cl)ccc2N(C(=O)C2CCN(c4ccccc4)CC2)CC3)CC1` [Example 78], the Ki was 8.71 nM.
Work on `O=C(C1CCN(c2ccccc2)CC1)N1CCc2nc(-c3ccccc3)[nH]c2-c2cc(Cl)ccc21` [Example 79] yielded a Ki of 77.6 nM.
For `O=C(C1CCN(c2ccccc2)CC1)N1CCc2nc(-c3ccccc3F)[nH]c2-c2cc(Cl)ccc21` [Example 80], the Ki was 81.3 nM.
In the case of `O=C(C1CCN(c2ccccc2)CC1)N1CCc2nc(-c3cccc(F)c3)[nH]c2-c2cc(Cl)ccc21` [Example 81], the Ki is reported as 93.3 nM.
`O=C(C1CCN(c2ccccc2)CC1)N1CCc2nc(Cc3ccccc3)[nH]c2-c2cc(Cl)ccc21` [Example 82] showed a Ki of 42.7 nM.
With `Cc1nc2c([nH]1)-c1cc(Cl)ccc1N(C(=O)C1CCN(c3ccccc3F)CC1)CC2` [Example 83] the Ki was 26.3 nM.
`Cc1nc2c([nH]1)-c1cc(Cl)ccc1N(C(=O)C1CCN(c3cccc(F)c3)CC1)CC2` [Example 84] gave a Ki of 38 nM.
Compound `Cc1nc2c([nH]1)-c1cc(Cl)ccc1N(C(=O)C1CCN(c3ccc(F)cc3)CC1)CC2` [Example 85] has a Ki of 11 nM.
For `Cc1nc2c([nH]1)-c1cc(Cl)ccc1N(C(=O)C1CCN(c3ccccc3Cl)CC1)CC2` [Example 86], the Ki was 31.6 nM.
Compound `Cc1nc2c([nH]1)-c1cc(Cl)ccc1N(C(=O)C1CCN(c3cccc(Cl)c3)CC1)CC2` [Example 87] has a Ki of 69.2 nM.
`Cc1nc2c([nH]1)-c1cc(Cl)ccc1N(C(=O)C1CCN(c3ccc(Cl)cc3)CC1)CC2` [Example 88] showed a Ki of 6.17 nM.
With `Cc1nc2c([nH]1)-c1cc(Cl)ccc1N(C(=O)C1CCN(c3ccccc3C)CC1)CC2` [Example 89] the Ki was 25.7 nM.
In the case of `Cc1cccc(N2CCC(C(=O)N3CCc4nc(C)[nH]c4-c4cc(Cl)ccc43)CC2)c1` [Example 90], the Ki is reported as 9.55 nM.
`Cc1ccc(N2CCC(C(=O)N3CCc4nc(C)[nH]c4-c4cc(Cl)ccc43)CC2)cc1` [Example 91] showed a Ki of 1.26 nM.
`COc1ccccc1N1CCC(C(=O)N2CCc3nc(C)[nH]c3-c3cc(Cl)ccc32)CC1` [Example 92] was tested, and the Ki was 22.9 nM.
Compound `COc1cccc(N2CCC(C(=O)N3CCc4nc(C)[nH]c4-c4cc(Cl)ccc43)CC2)c1` [Example 93] has a Ki of 2.51 nM.
`COc1ccc(N2CCC(C(=O)N3CCc4nc(C)[nH]c4-c4cc(Cl)ccc43)CC2)cc1` [Example 94] showed a Ki of 16.2 nM.
`CCc1ccc(N2CCC(C(=O)N3CCc4nc(C)[nH]c4-c4cc(Cl)ccc43)CC2)cc1` [Example 95] showed a Ki of 3.16 nM.
`CCCc1ccc(N2CCC(C(=O)N3CCc4nc(C)[nH]c4-c4cc(Cl)ccc43)CC2)cc1` [Example 96] gave a Ki of 13.5 nM.
Compound `Cc1nc2c([nH]1)-c1cc(Cl)ccc1N(C(=O)C1CCN(c3ccc(C(C)C)cc3)CC1)CC2` [Example 97] has a Ki of 22.4 nM.
For `Cn1ncc2c1Nc1ccccc1N(C(=O)C1CCN(c3ncccn3)CC1)C2` [Example 98], the Ki was 141 nM.
With `O=C(C1CCN(c2nccc(C(F)(F)F)n2)CC1)N1Cc2cnn(C3CCCCC3)c2Nc2ccccc21` [Example 99] the Ki was 35.5 nM.
In the case of `Cn1ncc2c1Nc1cc(F)ccc1N(C(=O)C1CCN(c3ncccn3)CC1)C2` [Example 100], the Ki is reported as 145 nM.
With `CCn1ncc2c1Nc1cc(F)ccc1N(C(=O)C1CCN(c3nccc(C(F)(F)F)n3)CC1)C2` [Example 101, (3-Ethyl-6-fluoro-4,10-dihydro-3H-2,3,4,9-tetraaza-benzo[f]azulen-9-yl)-[1-(4-trifluoromethyl-pyrimidin-2-yl)-piperidin-4-yl]-methanone] the Ki was 575 nM.
`Cc1ccc2c(c1)Nc1c(cnn1C)CN2C(=O)C1CCN(c2ncccn2)CC1` [Example 102] showed a Ki of 151 nM.
Compound `Cn1ncc2c1Nc1cc(Cl)ccc1N(C(=O)C1CCN(c3ncccn3)CC1)C2` [Example 103, (6-Chloro-3-methyl-4,10-dihydro-3H-2,3,4,9-tetraaza-benzo[f]azulen-9-yl)-(1-pyrimidin-2-yl-piperidin-4-yl)-methanone] has a Ki of 75.9 nM.
`O=C(C1CCN(c2ncccn2)CC1)N1Cc2cnn(-c3ccccc3)c2Nc2cc(Cl)ccc21` [Example 104] was tested, and the Ki was 14.1 nM.
With `CCc1cnc(N2CCC(C(=O)N3Cc4cnn(-c5ccccc5)c4Nc4cc(Cl)ccc43)CC2)nc1` [Example 105] the Ki was 13.8 nM.
For `Cn1ncc2c1Nc1ccccc1N(C(=O)C1CCN(c3ccccn3)CC1)C2` [Example 106], the Ki was 12.6 nM.
In the case of `CCn1ncc2c1Nc1cc(F)ccc1N(C(=O)C1CCN(c3ccc(C)cn3)CC1)C2` [Example 107], the Ki is reported as 1.91 nM.
`Cc1ccc(N2CCC(C(=O)N3Cc4cnn(C(C)(C)C)c4Nc4cc(F)ccc43)CC2)nc1` [Example 108] showed a Ki of 5.37 nM.
For `Cc1ccc2c(c1)Nc1c(cnn1C)CN2C(=O)C1CCN(c2ccccn2)CC1` [Example 109], the Ki was 12.9 nM.
`Cc1ccc2c(c1)Nc1c(cnn1C)CN2C(=O)C1CCN(c2ncccc2C)CC1` [Example 110] was tested, and the Ki was 4.57 nM.
In the case of `Cc1ccnc(N2CCC(C(=O)N3Cc4cnn(C)c4Nc4cc(C)ccc43)CC2)c1` [Example 111], the Ki is reported as 2.4 nM.
`Cc1ccc(N2CCC(C(=O)N3Cc4cnn(C)c4Nc4cc(C)ccc43)CC2)nc1` [Example 112] showed a Ki of 2.82 nM.
`COc1cccnc1N1CCC(C(=O)N2Cc3cnn(C)c3Nc3cc(C)ccc32)CC1` [Example 113] was tested, and the Ki was 30.2 nM.
Compound `Cc1ccc(N2CCC(C(=O)N3Cc4cnn(Cc5ccccc5)c4Nc4cc(C)ccc43)CC2)nc1` [Example 114] has a Ki of 20 nM.
